Reference: ChEMBL document CHEMBL1255325, “Plasmid-mediated qepA gene among Escherichia coli clinical isolates from Japan” (2008)
Values after ≈ are worked out from the molar mass of the structure shown.

Experiments:
Escherichia coli [1] = test: Antimicrobial activity against Escherichia coli MRY04-1060 expressing qepA gene by agar dilution CLSI method; format: functional
Escherichia coli [2] = test: Antimicrobial activity against Escherichia coli MRY05-3283 expressing qepA and rmtB gene by agar dilution CLSI method; format: functional
Escherichia coli [3] = test: Antimicrobial activity against Escherichia coli isolate DH10B by agar dilution CLSI method
Escherichia coli [4] = test: Antimicrobial activity against Escherichia coli DH10B harboring p041060 carrying qepA gene by agar dilution CLSI method; format: functional
Escherichia coli [5] = test: Antimicrobial activity against Escherichia coli DH10B harboring p05283 carrying qepA and rmtB gene by agar dilution CLSI method; format: functional
Escherichia coli [6] = test: Ratio of MIC for Escherichia coli DH10B harboring p041060 carrying qepA gene to MIC for Escherichia coli isolate DH10B; format: functional
Escherichia coli [7] = test: Ratio of MIC for Escherichia coli DH10B harboring p05283 carrying qepA and rmtB gene to MIC for Escherichia coli isolate DH10B; format: functional

Compound | MIC (Escherichia coli [1]) [µg/mL] | MIC (Escherichia coli [2]) [µg/mL] | MIC (Escherichia coli [3]) [µg/mL] | MIC (Escherichia coli [4]) [µg/mL] | MIC (Escherichia coli [5]) [µg/mL] | Ratio (Escherichia coli [6]) | Ratio (Escherichia coli [7])
C[C@H]1COc2c(N3CCN(C)CC3)c(F)cc3c(=O)c(C(=O)O)cn1c23.C[C@H]1COc2c(N3CCN(C)CC3)c(F)cc3c(=O)c(C(=O)O)cn1c23.O [LEVOFLOXACIN] | 64 | 128 | ≤ 0.008 | – | – | – | –
NCC[C@H](O)C(=O)N[C@@H]1C[C@H](N)[C@@H](O[C@H]2O[C@H](CN)[C@@H](O)[C@H](O)[C@H]2O)[C@H](O)[C@H]1O[C@H]1O[C@H](CO)[C@@H](O)[C@H](N)[C@H]1O [AMIKACIN] | > 128 | > 128 | 2 (≈ 3.42 µM) | > 128 | > 128 | – | –
CO/N=C(\C(=O)N[C@@H]1C(=O)N2C(C(=O)O)=C(COC(C)=O)CS[C@H]12)c1csc(N)n1 [CEFOTAXIME] | 0.13 (≈ 0.285 µM) | 0.13 (≈ 0.285 µM) | 0.06 (≈ 0.132 µM) | 0.06 (≈ 0.132 µM) | 0.06 (≈ 0.132 µM) | – | –
CCn1cc(C(=O)O)c(=O)c2cc(F)c(N3CCNCC3)cc21 [NORFLOXACIN] | > 128 | > 128 | ≤ 0.008 | 0.25 (≈ 0.783 µM) | 0.25 (≈ 0.783 µM) | 4 | 4
GENTAMICIN | > 128 | > 128 | – | > 128 | > 128 | – | –
CC(C)(O/N=C(\C(=O)N[C@@H]1C(=O)N2C(C(=O)[O-])=C(C[n+]3ccccc3)CS[C@H]12)c1csc(N)n1)C(=O)O [CEFTAZIDIME] | 0.5 (≈ 0.915 µM) | 0.5 (≈ 0.915 µM) | 0.25 (≈ 0.457 µM) | 0.5 (≈ 0.915 µM) | 0.5 (≈ 0.915 µM) | – | –
NC[C@H]1O[C@H](O[C@H]2[C@H](O)[C@@H](O[C@H]3O[C@H](CO)[C@@H](O)[C@H](N)[C@H]3O)[C@H](N)C[C@@H]2N)[C@H](N)C[C@@H]1O [TOBRAMYCIN] | > 128 | > 128 | 0.5 (≈ 1.07 µM) | > 128 | > 128 | – | –
C[C@@H](O)[C@H]1C(=O)N2C(C(=O)O)=C(SCCNC=N)C[C@H]12 [IMIPENEM ANHYDROUS] | 0.13 (≈ 0.434 µM) | 0.13 (≈ 0.434 µM) | 0.25 (≈ 0.835 µM) | – | – | – | –
